For 26 molecules, IC50 results are on record in patent US20150105429A1, “BENZYL SULFONAMIDE DERIVATIVES AS RORC MODULATORS” (Genentech, Inc., priority 2011, published 2015).

The target of the assay is T1, RORc ligand binding domain (Homo sapiens, UniProt P51449).
T1 construct: host or cells: E. coli
T1 sequence (P51449 269-508 limits assumed): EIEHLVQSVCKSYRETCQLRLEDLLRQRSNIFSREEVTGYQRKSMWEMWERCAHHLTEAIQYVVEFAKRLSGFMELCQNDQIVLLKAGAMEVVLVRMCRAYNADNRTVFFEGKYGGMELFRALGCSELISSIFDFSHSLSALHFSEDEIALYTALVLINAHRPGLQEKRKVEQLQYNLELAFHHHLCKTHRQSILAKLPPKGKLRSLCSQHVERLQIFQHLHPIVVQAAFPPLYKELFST
Kind of assay: In Vitro RORc Ligand Binding Assay. As to conditions: radioligand 25-[3H]hydroxycholesterol 6 nM; 0.6 ug/mL RORc receptor; 3 h at 25° C.; read-out: IC50 values (micromolar) for RORc affinity. The method, then: This assay was used to determine a compound's potency in inhibiting activity of RORc by determining, Kiapp, IC50, or percent inhibition values.
On day of the assay, 100 uL of 0.05% CHAPS (in deionized H2O) was added to all wells of the GFB Unifilter plate and allowed soak for 1 h. A wash buffer of 50 mM HEPES (pH 7.4), 150 mM NaCl, and 5 mM MgCl2 was prepared to wash the filter plate. To prepare an assay buffer, BSA was added to the wash buffer to reach 0.01% and DTT was added to reach 1 mM.
The 20× compound stocks were diluted in DMSO with Assay Buffer 4-fold to reach 5× the final test concentration in 25% DMSO (10 uL compound+30 uL Assay Buffer). Solutions were mixed by aspiration several times with a pipette set on 50 uL volume. For the assay, 10 uL of 5× compound stock solutions in 25% DMSO were added to the assay plate in duplicate.
For two point screening, 10 mM stock compound solutions were diluted in DMSO to obtain 200 uM (20× the high test concentration) and then diluted 10-fold further to reach 20 uM (20× the low test concentration). The 20× stocks were diluted 4-fold with Assay Buffer (10 uL compound+30 uL Assay Buffer) to reach 5× the test concentrations (50 uM and 5 uM) and 10 uL were added to two assay plates for the duplicate wells. With each concentration tested on 2 plates, each set of 80 compounds used 4 assay plates (1 uM and 10 uM, with n=2).
For 25-hydroxycholesterol in 25% DMSO/75% Assay Buffer; 10 uL per well was used for NSB samples. Wells for Total Binding and No Receptor sample determination contained 10 uL of 25% DMSO/75% Assay Buffer per well.
Radioligand (25-[^3H]hydroxycholesterol) Preparation
Added 20 uL to all wells to reach 6 nM final in the assay.
Stock receptor solution was diluted in assay buffer to obtain 1.5 ug/mL in Assay Buffer. 20 uL was added to all wells. For No R samples, 20 uL Assay Buffer was substituted for receptor solution.
Assay plates were 96-well polypropylene V-bottom plates. 10 uL of 5× compound in 25% DMSO/75% Assay Buffer was added to Test wells. 10 uL of 25% DMSO/75% Assay Buffer was added to Total Binding or No Receptor wells. 10 uL of 5 uM 25-hydroxycholesterol in 25% DMSO/75% Assay Buffer was added to NSB wells. […] 20 uL of 1.5 ug/mL RORc receptor was added to wells (or 40 uL Assay Buffer to No R wells). Following addition to the wells, the plates were incubated 3 h at 25° C.
Using a Packard Filtermate Harvester, the filter plates were washed 4 times following transfer of the incubated samples. Plates were dry-filtered completely (2 h at 50° C. or overnight at room temperature). 50 uL Microscint 0 was added to all wells and read on Topcount protocol Inverted.
Final concentrations were as follows: 50 mM HEPES buffer (pH 7.4); 150 mM NaCl; 1 mM DTT; 5 mM MgCl2; 0.01% BSA; 5% DMSO; 0.6 ug/mL RORc receptor; 6 nM 25-[^3H]hydroxycholesterol. For NSB wells, 1 uM 25-hydroxycholesterol was also present.

One may read the IC50 as the concentration that gives 50% inhibition. Regarding `CC(C)CN(Cc1ccc(-c2cccc(S(C)(=O)=O)c2)cc1)S(=O)(=O)Cc1ccccc1` [Compound 1, N-Isobutyl-N-(3′-methanesulfonyl-biphenyl-4-ylmethyl)-C-phenyl-methanesulfonamide], the IC50 is 0.365 µM. The figure for `CS(=O)(=O)c1cccc(-c2ccc(CN(Cc3ccc(F)cc3Cl)S(=O)(=O)Cc3ccccc3)cc2)c1` [Compound 2, N-(2-Chloro-4-fluoro-benzyl)-N-(3′-methanesulfonyl-biphenyl-4-ylmethyl)-C-phenyl-methanesulfonamide] is 2.8 µM; for `Cc1nn(C)c(C)c1-c1ccc(CN(CC(C)C)S(=O)(=O)Cc2ccccc2)cc1` [Compound 3, N-Isobutyl-C-phenyl-N-[4-(1,3,5-trimethyl-1H-pyrazol-4-yl)-benzyl]-methanesulfonamide] it is 1.7 µM; for `CC(C)CN(Cc1ccc(-c2ccc(C(=O)N(C)C)cc2)cc1)S(=O)(=O)Cc1ccccc1` [Compound 5, 4′-[(Isobutyl-phenylmethanesulfonyl-amino)-methyl]-biphenyl-4-carboxylic acid dimethylamide] it is 0.963 µM. Then `CNS(=O)(=O)c1ccc(-c2ccc(CN(CC(C)C)S(=O)(=O)Cc3ccccc3)cc2)cc1` [Compound 9, 4′-[(Isobutyl-phenylmethanesulfonyl-amino)-methyl]-biphenyl-4-sulfonic acid methylamide], with 0.065 µM; and `Cc1n[nH]c(C)c1-c1ccc(CN(CC(C)C)S(=O)(=O)Cc2ccccc2)cc1` [Compound 10, N-[4-(3,5-Dimethyl-1H-pyrazol-4-yl)-benzyl]-N-isobutyl-C-phenyl-methanesulfonamide], with 2.8 µM. In the case of `CC(C)CN([C@H](C)c1ccc(-c2ccc(C(N)=O)cc2)cc1)S(=O)(=O)Cc1ccccc1` [Compound 14, 4′-[(R)-1-(Isobutyl-phenylmethanesulfonyl-amino)-ethyl]-biphenyl-4-carboxylic acid amide], the IC50 worked out at 0.128 µM. The figure for `CC(C)CN([C@H](C)c1ccc(-c2ccc(NS(C)(=O)=O)cc2)cc1)S(=O)(=O)Cc1ccccc1` [Compound 15, N-Isobutyl-N-[(R)-1-(4′-methanesulfonylamino-biphenyl-4-yl)-ethyl]-C-phenyl-methanesulfonamide] is 0.696 µM; for `CC(C)CN([C@@H](C)c1ccc(-c2ccc(C(N)=O)cc2)cc1)S(=O)(=O)Cc1ccccc1` [Compound 17, 4′-[(S)-1-(Isobutyl-phenylmethanesulfonyl-amino)-ethyl]-biphenyl-4-carboxylic acid amide] it is 0.154 µM; for `CC(C)CN([C@@H](C)c1ccc(-c2ccc(S(C)(=O)=O)cc2)cc1)S(=O)(=O)Cc1ccccc1` [Compound 18, N-Isobutyl-N-[(S)-1-(4′-methanesulfonyl-biphenyl-4-yl)-ethyl]-C-phenyl-methanesulfonamide] it is 0.168 µM.

As for `CC(C)CN([C@@H](C)c1ccc(-c2cccc(S(C)(=O)=O)c2)cc1)S(=O)(=O)Cc1ccccc1` [Compound 19, N-Isobutyl-N-[(S)-1-(3′-methanesulfonyl-biphenyl-4-yl)-ethyl]-C-phenyl-methanesulfonamide], the 50% inhibitory concentration (IC50) turned out to be 0.691 µM. The figure for `CC(C)CN([C@@H](C)c1ccc(-c2ccc(NS(C)(=O)=O)cc2)cc1)S(=O)(=O)Cc1ccccc1` [Compound 20, N-Isobutyl-N-[(S)-1-(4′-methanesulfonylamino-biphenyl-4-yl)-ethyl]-C-phenyl-methanesulfonamide] is 0.251 µM; for `CC(C)CN([C@H](C)c1ccc(-c2ccc(S(C)(=O)=O)cc2)cc1)S(=O)(=O)Cc1ccccc1` [Compound 21, N-Isobutyl-N-[(R)-1-(4′-methanesulfonyl-biphenyl-4-yl)-ethyl]-C-phenyl-methanesulfonamide] it is 2.9 µM; for `CC(C)CN(Cc1ccc(-c2ccc(S(C)(=O)=O)cc2)cc1F)S(=O)(=O)Cc1ccccc1` [Compound 22, N-(3-Fluoro-4′-methanesulfonyl-biphenyl-4-ylmethyl)-N-isobutyl-C-phenyl-methanesulfonamide] it is 0.019 µM.

Turning to `O=S(=O)(Cc1ccccc1)N(Cc1ccc(-c2ccncc2)cc1F)CC(F)(F)F` [Compound 23, N-(2-Fluoro-4-pyridin-4-yl-benzyl)-C-phenyl-N-(2,2,2-trifluoro-ethyl)-methanesulfonamide], the concentration for half-maximal inhibition (IC50) was 0.282 µM. `Cc1cc(CN(CC(C)C)S(=O)(=O)Cc2ccccc2)ccc1-c1ccc(S(C)(=O)=O)cc1` [Compound 24, N-Isobutyl-N-(4′-methanesulfonyl-2-methyl-biphenyl-4-ylmethyl)-C-phenyl-methanesulfonamide]: the IC50 was 0.011 µM. The figure for `Cc1cc(-c2ccc(S(C)(=O)=O)cc2)ccc1CN(CC(C)C)S(=O)(=O)Cc1ccccc1` [Compound 25, N-Isobutyl-N-(4′-methanesulfonyl-3-methyl-biphenyl-4-ylmethyl)-C-phenyl-methanesulfonamide] is 0.057 µM; for `CC(C)CN(Cc1ccc(-c2cccc(S(C)(=O)=O)c2)s1)S(=O)(=O)c1cccc(Cl)c1` [Compound 26, 3-Chloro-N-isobutyl-N-[5-(3-methanesulfonyl-phenyl)-thiophen-2-ylmethyl]-benzenesulfonamide] it is 0.188 µM.

For the molecule `CC(C)CN(Cc1ccc(-c2cccc(S(C)(=O)=O)c2)s1)S(=O)(=O)c1ccccc1C#N` [Compound 27, 2-Cyano-N-isobutyl-N-[5-(3-methanesulfonyl-phenyl)-thiophen-2-ylmethyl]-benzenesulfonamide], the half-maximal inhibitory concentration (IC50) was 3.7 µM. The figure for `CC(C)CN(Cc1ccc(-c2cccc(S(C)(=O)=O)c2)s1)S(=O)(=O)c1ccccc1` [Compound 28, N-Isobutyl-N-[5-(3-methanesulfonyl-phenyl)-thiophen-2-ylmethyl]-benzenesulfonamide] is 0.476 µM. Take `CC(C)CN(Cc1ccc(-c2cccc(S(C)(=O)=O)c2)s1)S(=O)(=O)Cc1ccccc1F` [Compound 29, C-(2-Fluoro-phenyl)-N-isobutyl-N-[5-(3-methanesulfonyl-phenyl)-thiophen-2-ylmethyl]-methanesulfonamide]: the IC50 was 1.5 µM. Then `CC(C)CN(Cc1ccc(-c2cccc(S(C)(=O)=O)c2)s1)S(=O)(=O)Cc1ccc(F)cc1` [Compound 30, C-(4-Fluoro-phenyl)-N-isobutyl-N-[5-(3-methanesulfonyl-phenyl)-thiophen-2-ylmethyl]-methanesulfonamide], with 1.4 µM. Then `CC(C)CN(Cc1ccc(-c2cccc(S(C)(=O)=O)c2)s1)S(=O)(=O)Cc1cccc(F)c1` [Compound 31, C-(3-Fluoro-phenyl)-N-isobutyl-N-[5-(3-methanesulfonyl-phenyl)-thiophen-2-ylmethyl]-methanesulfonamide], with 1.3 µM. With `Cc1n[nH]c(C)c1S(=O)(=O)N(Cc1ccc(-c2cccc(S(C)(=O)=O)c2)s1)CC(C)C` [Compound 32, 3,5-Dimethyl-1H-pyrazole-4-sulfonic acid isobutyl-[5-(3-methanesulfonyl-phenyl)-thiophen-2-ylmethyl]-amide], the IC50 was determined as 2.5 µM. Then `CC(C)CN(Cc1ccc(-c2cccc(S(C)(=O)=O)c2)s1)S(=O)(=O)c1cccc(C#N)c1` [Compound 33, 3-Cyano-N-isobutyl-N-[5-(3-methanesulfonyl-phenyl)-thiophen-2-ylmethyl]-benzenesulfonamide], with 2.4 µM; and `CCn1cc(-c2ccc(CN(CC(C)C)S(=O)(=O)Cc3ccccc3)s2)cn1` [Compound 36, N-[5-(1-Ethyl-1H-pyrazol-4-yl)-thiophen-2-ylmethyl]-N-isobutyl-C-phenyl-methanesulfonamide], with 0.598 µM.
